Laboratory results taken from patent US20210238225A1, “PEPTIDOMIMETIC INHIBITORS OF THE PEPTIDYL-PROLYL CIS/TRANS ISOMERASE (PIN1)” (DANA-FARBER CANCER INSTITUTE, INC., priority 2018, published 2021).
Non-standard residues stand in square brackets, D forms with d. Residues, ends and D or L forms follow the SMILES beside them. *: point of attachment. Phe(4-F) = N[C@@H](Cc1ccc(F)cc1)C(=O)O; 2Nal = N[C@@H](Cc1ccc2ccccc2c1)C(=O)O; NH(4-Me-benzyl) = Cc1ccc(CN*)cc1; Cit = NC(=O)NCCC[C@H](N)C(=O)O; Pip = O=C(O)[C@@H]1CCCCN1; X3 = C=CS(=O)(=O)*; ClAc = O=C(CCl)*; X1 = O=C(C1CO1)*

Assays:
Pin1 [1] = target: T1, Pin1 (Homo sapiens, UniProt Q13526); experiment: Cellular target engagement, live cell biotin competition assay in TNBC MDA-MB-231 cells; format: cell-based; set-up: endogenous in cells; host or cells: MDA-MB-231; conditions: TNBC MDA-MB-231 cells; for Cellular Target Engagement?: 5 hours treatment, concentration under E7
T1 sequence (Q13526 whole entry): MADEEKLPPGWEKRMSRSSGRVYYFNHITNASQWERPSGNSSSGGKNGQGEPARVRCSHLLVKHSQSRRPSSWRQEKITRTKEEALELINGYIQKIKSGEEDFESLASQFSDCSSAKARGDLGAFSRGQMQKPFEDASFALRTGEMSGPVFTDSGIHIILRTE
Method: TNBC MDA-MB-231 cells were plated in 10 cm plates with 2.5 million cells per plate in 6 mL of media. The day after plating, cells were treated with the indicated concentrations of compound 18 for 5 hours. The cells were washed 2× with 0.9% NaCl (1 mL per 10 cm plate), and collected by scraping with a cell scraper. Cells were lysed in lysis buffer (50 mM Hepes pH 7.5, 150 mM NaCl, 1 mM EDTA, 10% v/v glycerol, 0.5% v/v […], protease inhibitors (Roche)) using 210 μL of cell lysis buffer per 10 cm plate of cells. After clarifying by centrifugation (14,000 rpm for 15 min at 4° C.), 5 μL of each lysate sample was combined with 5 μL of 2× LDS+10% β-mercaptoethanol, boiled for 5 minutes, and set aside for the input loading control (later to be loaded directly in the gel). Then, 200 μL of each lysate was then incubated with 1 μM of compound 2-32 (biotin probe compound) for 1 hour at 4° C. Lysates were then incubated with streptavidin agarose resin (30 μL of 1:1 beads: lysis buffer slurry) (Thermo Scientific™, cat. #20349) for 2 hours at 4° C. Beads were washed 4 times with 500 μL of washing buffer (50 mM Hepes, pH7.5, 10 mM NaCl, 1 mM EDTA, 10% glycerol), then pelleted by centrifugation and dried. The beads were then boiled at 95° C. for 5 minutes in 30 μL of 2× LDS+10% β-mercaptoethanol. Lysates were probed for specified proteins by western blotting using the Bolt system (Life Technologies™).

Pin1 (GST-Pin1) = Pin1 (GST-Pin1) (Homo sapiens, UniProt Q13526); experiment: Fluorescence polarization (FP) assay, binding to Pin1; conditions: competition with fluorescein-labeled peptide probe; 12 hours pre-incubation at 4° C.; Kenakin Ki equation; read-out: Ki, μM (FP Assay)
Pin1 (GST-Pin1), sequence (Q13526 whole entry): as above

Pin1 [2] = target: T1, Pin1; experiment: Lysate target engagement (pull down with biotinylated probes; competition assay); format: binding; set-up: endogenous in cells; host or cells: MDA-MB-231; conditions: for Lysate Target Engagement?: TNBC-MDA-MB-231 lysate, biotin/dtb probes: pull down, others: competition, concentration under E5; for Lysate Target Engagement? concentration stated for the engagement or pull down: read with the E4 line of the same compound (complete, partial, probe pull down)
Method: (§1) TNBC-MDA-MB-231 cells were lysed in lysis buffer (50 mM Hepes pH 7.5, 150 mM NaCl, 1 mM ethylenediaminetetraacetic acid (EDTA), 10% v/v glycerol, 0.5% v/v NP-40, protease inhibitors (Roche)). After clarifying by centrifugation (14,000 rpm for 15 min at 4° C.), lysates were incubated with the indicated concentrations of candidate compound for 1 hour at 4° C. (500 μg of protein per sample, as determined by BCA). Lysates were then incubated with streptavidin agarose resin (30 μL of 1:1 beads: lysis buffer slurry) (Thermo Scientific™, cat. #20349) for 2 hours at 4° C. Beads were washed 4 times with 500 μL of washing buffer (50 mM Hepes, pH 7.5, 10 mM NaCl, 1 mM EDTA, 10% glycerol), then pelleted by centrifugation and dried. The beads were then boiled at 95° C. for 5 minutes in 30 μL of 2× LDS+10% β-mercaptoethanol. Lysates were probed for specified proteins by western blotting using the Bolt system (Life Technologies™).
as §1, with “mM EDTA,” for “mM ethylenediaminetetraacetic acid (EDTA),”, “by centrifugation,” for “by centrifugation (14,000 rpm for 15 min at 4° C.),”, “were pre-incubated” for “were incubated”, “of” for “of candidate”, “compound 18 overnight” for “compound for 1 hour”, “BCA). The lysates were then incubated with 1 μM of compound 2c (desthiobiotin probe) for 1 hour at 4° C.” for “BCA).”

Pin1 Cys 113 = Pin1 Cys 113 (Homo sapiens, UniProt Q13526); experiment: Covalent labeling (intact MS); format: binding; conditions: purified Pin1 with 5 μM inhibitor, 0-3 hr
Pin1 Cys 113, sequence (Q13526 whole entry): as above
Method: 5 μg of purified Pin1 protein in 50 μL of 20 mM HEPES pH 7.5 and 75 mM NaCl was incubated with 5 μM of respective Pin1 inhibitors for 0-3 hr. A Shimadzu XR HPLC was used to inject the entire sample onto a self-packed reverse-phase column (1/32 in outer diameter×500 μm inner diameter, 5 cm of POROS 50R2 resin). After desalting, protein was eluted with an HPLC gradient (0%-100% B in 4 min, A=0.2 M acetic acid in water, B=0.2 M acetic acid in acetonitrile, flow rate=10 μl/min) into a LTQ XL mass spectrometer (Thermo Fisher Scientific, San Jose, Calif., USA). LTQ XL MS spectra were acquired in centroid mode using the electron multipliers for ion detection. Mass spectra were deconvoluted using MagTran1.03b2 software (Zhang and Marshall, J. Am. Soc. Mass Spectrom. 9:225-233 (1998)).

Structure (SMILES)	Cellular Target Engagement? (Pin1 [1])	Ki (Pin1 (GST-Pin1)) [µM]	Lysate Target Engagement? (Pin1 [2])	Lysate Target Engagement? concentration stated for the engagement or pull down (Pin1 [2])	Covalent? (In tact MS), % labeling (Pin1 Cys 113)	Cellular Target Engagement? concentration stated for complete engagement (Pin1 [1]; read with the E6 line)
COC(=O)CC[C@H](NC(=O)CCl)C(=O)N1CCCC[C@H]1C(=O)N[C@@H](Cc1ccc2ccccc2c1)C(=O)N[C@@H](CCCNC(N)=O)C(N)=O [Compound 2-11, Methyl (S)-5-((S)-2-(((S)-1-(((S)-1-amino-1-oxo-5-ureidopentan-2-yl)amino)-3-(naphthalen-2-yl)-1-oxopropan-2-yl)carbamoyl)piperidin-1-yl)-4-(2-chloroacetamido)-5-oxopentanoate] (ClAc-E(OMe)[Pip][2Nal][Cit]-NH2)	No	0.06	Yes-complete	by 10 μM	–	–
NC(=O)[C@H](Cc1ccc(F)cc1)NC(=O)[C@H](Cc1c[nH]c2ccccc12)NC(=O)[C@@H]1CCCCN1C(=O)[C@H](CCC(=O)O)NC(=O)CCl [Compound 2-27, (S)-5-((S)-2-(((S)-1-(((S)-1-Amino-3-(4-fluorophenyl)-1-oxopropan-2-yl)amino)-3-(1H-indol-3-yl)-1-oxopropan-2-yl)carbamoyl)piperidin-1-yl)-4-(2-chloroacetamido)-5-oxopentanoic acid] (ClAc-E[Pip]W[Phe(4-F)]-NH2)	No	0.075	Yes-partial	at 10 μM	–	–
NC(=O)NCCC[C@H](NC(=O)[C@H](Cc1c[nH]c2ccccc12)NC(=O)[C@@H]1CCCCN1C(=O)[C@H](CCC(=O)O)NC(=O)CCl)C(N)=O [Compound 2b-18, (S)-5-((S)-2-(((S)-1-(((S)-1-Amino-1-oxo-5-ureidopentan-2-yl)amino)-3-(1H-indol-3-yl)-1-oxopropan-2-yl)carbamoyl)piperidin-1-yl)-4-(2-chloroacetamido)-5-oxopentanoic acid] (ClAc-E[Pip]W[Cit]-NH2)	No	–	Yes-Complete	at 5 μM	–	–
NC(=O)NCCC[C@H](NC(=O)[C@H](Cc1ccc2ccccc2c1)NC(=O)[C@@H]1CCCCN1C(=O)[C@H](CCC(=O)O)NC(=O)C1CO1)C(N)=O (stereo partly drawn) [Compound 3b-1, (4S)-5-((S)-2-(((S)-1-(((S)-1-Amino-1-oxo-5-ureidopentan-2-yl)amino)-3-(naphthalen-2-yl)-1-oxopropan-2-yl)carbamoyl)piperidin-1-yl)-4-(oxirane-2-carboxamido)-5-oxopentanoic acid] (X1-E[Pip][2Nal][Cit]-NH2)	No	1.61	No	–	Yes (93%	–
C=CS(=O)(=O)N[C@@H](CCC(=O)O)C(=O)N1CCCC[C@H]1C(=O)N[C@@H](Cc1ccc2ccccc2c1)C(=O)N[C@@H](CCCNC(N)=O)C(N)=O [Compound 4, (S)-5-((S)-2-(((S)-1-(((S)-1-Amino-1-oxo-5-ureidopentan-2-yl)amino)-3-(naphthalen-2-yl)-1-oxopropan-2-yl)carbamoyl)piperidin-1-yl)-5-oxo-4(vinylsulfonamido)pentanoic acid] (X3-E[Pip][2Nal][Cit]-NH2)	–	0.35	No	–	Yes (93%	–
COC(=O)CC[C@H](NC(=O)CCl)C(=O)N1CCCC[C@H]1C(=O)N[C@@H](Cc1c[nH]c2ccccc12)C(=O)N[C@@H](Cc1ccc(O)cc1)C(=O)NCc1ccc(C)cc1 [Compound 11-1, Methyl (S)-4-(2-chloroacetamido)-5-((S)-2-(((S)-1-(((S)-3-(4-hydroxyphenyl)-1-((4-methyl-benzyl)amino)-1-oxopropan-2-yl)amino)-3-(1H-indol-3-yl)-1-oxopropan-2-yl)carbamoyl)piperidin-1-yl)-5-oxopentanoate]	No	0.176	No	–	–	–
COC(=O)CC[C@H](NC(=O)CCl)C(=O)N1CCCC[C@H]1C(=O)N[C@@H](Cc1c[nH]c2ccccc12)C(=O)N[C@@H](Cc1c[nH]c2ccccc12)C(=O)NCc1ccc(C)cc1 [Compound 11-2, Methyl (S)-5-((S)-2-(((S)-1-(((S)-3-(1H-indol-3-yl)-1-((4-methylbenzyl)amino)-1-oxopropan-2-yl)amino)-3-(1H-indol-3-yl)-1-oxopropan-2-yl)carbamoyl)piperidin-1-yl)-4-(2-chloroacetamido)-5-oxopentanoate] (ClAc-E(OMe)[Pip]WW-{NH(4-Me-benzyl)})	No	> 10	No	–	–	–
Cc1ccc(CNC(=O)[C@H](CCCNC(N)=O)NC(=O)[C@H](Cc2c[nH]c3ccccc23)NC(=O)[C@@H]2CCCCN2C(=O)[C@H](Cc2ccccc2)NC(=O)CCl)cc1 [Compound 11-23, (S)—N—((S)-3-(1H-indol-3-yl)-1-(((S)-1-((4-methylbenzyl)amino)-1-oxo-5-ureidopentan-2-yl)amino)-1-oxopropan-2-yl)-1-((2-chloroacetyl)-L-phenylalanyl)piperidine-2-carboxamide] (ClAc-F[Pip]W[Cit]-{NH(4-Me-benzyl)})	Yes-Complete	0.004	–	–	Yes (100%	at 10 μM
